The values below come from US9481648B2, “Kinase inhibitors” (Respivert Limited, priority 2013, dated 2016).

One test concerns the target p38 MAPKα (MAPK14) (Homo sapiens (Human), UniProt Q16539). Briefly: p38 MAPKα enzyme inhibition (FRET, Z-LYTE; Method 2). The test is classed as biochemical. How it is done: (§1) The enzyme inhibitory activities of compounds disclosed herein are determined by FRET using synthetic peptides labelled with both donor and acceptor fluorophores (Z-LYTE, Invitrogen Ltd., Paisley, UK).
The inhibitory activities of test compounds against the p38 MAPKα isoform (MAPK14: Invitrogen) are evaluated indirectly by determining the level of activation\phosphorylation of the down-stream molecule, MAPKAP-K2. The p38 MAPKα protein (80 ng/mL, 2.5 μL) is mixed with the test compound (2.5 μL of either 4 μg/mL, 0.4 μg/mL, 0.04 μg/mL or 0.004 μg/mL) for 2 hr at RT. […] The mixture is incubated for 1 hr at RT. Development reagent (protease, 5 μL) is added for 1 hr prior to detection in a fluorescence microplate reader (Vanoskan® Flash, ThermoFisher Scientific).
(§2) In all cases, the site-specific protease cleaves non-phosphorylated peptide only and eliminates the FRET signal. Phosphorylation levels of each reaction are calculated using the ratio of coumarin emission (donor) over fluorescein emission (acceptor), for which high ratios indicate high phosphorylation and low ratios indicate low phosphorylation levels.

The target in another test is c-Src (Homo sapiens (Human), UniProt P12931). Description: c-Src enzyme inhibition (FRET, Z-LYTE). The test is classed as biochemical. Here is the method: as §1
(§3) The relevant enzyme (3000 ng/mL or 2000 ng/mL respectively, 2.5 μL) is incubated with the test compound (either 1 μg/mL, 0.1 μg/mL, 0.01 μg/mL, or 0.001 μg/mL, 2.5 μL each) for 2 hr at RT. The FRET peptides (8 μM, 2.5 μL), and appropriate ATP solutions (2.5 μL, 800 μM for c-Src, and 60 μM ATP for Syk) are then added to the enzymes/compound mixtures and the mixture incubated for 1 hr. Development reagent (protease, 5 μL) is added for 1 hr prior to detection in a fluorescence microplate reader (Varioskan® Flash, ThermoFisher Scientific).
as §2

Another test has as its target Syk (Homo sapiens (Human), UniProt P43405). Description: Syk enzyme inhibition (FRET, Z-LYTE). The test is classed as biochemical. How it is done:
as §1, §3, §2

In another test the target is GSK 3α (Homo sapiens (Human), UniProt P49840). Briefly: GSK 3α enzyme inhibition (FRET, Z-LYTE; Method 2). The test is classed as biochemical. As to conditions: read-out: IC50 Values for Enzyme Inhibition GSK3α. In short, it runs like this: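 Z-LYTE FRET assay: GSK3-α (500 ng/mL stock) preincubated 105 min at RT with compound at 10, 1, 0.1 or 0.01 μg/mL stock. FRET peptide (8 μM stock) and ATP (40 μM stock) were then added for 1 h, followed by protease development for 1 h. Phosphorylation was read as coumarin/fluorescein emission ratio.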

Test [1] deals with β-catenin in d-U937 cells. Description: Accumulation of β catenin in d-U937 cells (assay m). It counts as cell-based, human. Here is the method: U937 cells, a human monocytic cell line, are differentiated into macrophage-type cells by incubation with PMA (100 ng/mL) for between 48 to 72 hr. The cells are then incubated with either final concentrations of test compound or vehicle for 18 hr. The induction of β-catenin by the test compounds is stopped by replacing the media with 4% formaldehyde solution. Endogenous […] is neutralised by incubating with quenching buffer (100 μL, 0.1% sodium azide, 1% H2O2 in PBS with 0.05% Tween-20) for 20 min. The cells are washed with washing buffer (200 μL; PBS containing 0.05% Tween-20) and incubated with blocking solution (200 μL; 5% milk in PBS) for 1 hr, re-washed with washing buffer (200 μL) and then incubated overnight with anti-β-catenin antibody solution (50 μL) in 1% BSA/PBS (BD, Oxford, UK).
After washing with washing buffer (3×200 μL; PBS containing 0.05% Tween-20), cells are incubated with a HRP-conjugated secondary antibody solution (100 μL) in 1% BSA/PBS (Dako, Cambridge, UK) and the resultant signal is determined colourimetrically (OD: 450 nm with a reference wavelength of 655 nm) using TMB substrate (50 μL; R&D Systems, Abingdon, UK). This reaction is stopped by addition of 1N H2SO4 solution (50 μL). Cells are then washed with washing buffer and 2% crystal violet solution (50 μL) is applied for 30 min. After washing with washing buffer (3×200 μL), 1% SDS (100 μL) is added to each well and the plates are shaken lightly for 1 hr prior to measuring the absorbance at 595 nm (Varioskan® Flash, Thermo-Fisher Scientific).
The measured OD450-655 readings are corrected for cell number by dividing the OD450-655 by the OD595 readings.

Sequence of c-Src (P12931 whole entry, looked up): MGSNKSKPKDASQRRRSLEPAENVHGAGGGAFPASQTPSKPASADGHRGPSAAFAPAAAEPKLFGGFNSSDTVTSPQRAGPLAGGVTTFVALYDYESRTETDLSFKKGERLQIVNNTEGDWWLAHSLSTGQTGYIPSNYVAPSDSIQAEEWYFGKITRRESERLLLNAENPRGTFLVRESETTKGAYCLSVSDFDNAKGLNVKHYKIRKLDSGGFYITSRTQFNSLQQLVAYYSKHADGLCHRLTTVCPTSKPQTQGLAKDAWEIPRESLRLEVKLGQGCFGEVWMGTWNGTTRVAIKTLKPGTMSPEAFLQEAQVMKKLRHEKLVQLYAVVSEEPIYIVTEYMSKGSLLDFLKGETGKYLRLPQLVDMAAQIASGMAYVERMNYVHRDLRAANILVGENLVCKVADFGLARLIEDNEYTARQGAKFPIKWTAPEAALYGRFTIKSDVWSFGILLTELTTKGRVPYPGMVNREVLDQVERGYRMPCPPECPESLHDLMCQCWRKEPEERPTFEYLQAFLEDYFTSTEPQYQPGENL
Sequence of GSK 3α (P49840 whole entry): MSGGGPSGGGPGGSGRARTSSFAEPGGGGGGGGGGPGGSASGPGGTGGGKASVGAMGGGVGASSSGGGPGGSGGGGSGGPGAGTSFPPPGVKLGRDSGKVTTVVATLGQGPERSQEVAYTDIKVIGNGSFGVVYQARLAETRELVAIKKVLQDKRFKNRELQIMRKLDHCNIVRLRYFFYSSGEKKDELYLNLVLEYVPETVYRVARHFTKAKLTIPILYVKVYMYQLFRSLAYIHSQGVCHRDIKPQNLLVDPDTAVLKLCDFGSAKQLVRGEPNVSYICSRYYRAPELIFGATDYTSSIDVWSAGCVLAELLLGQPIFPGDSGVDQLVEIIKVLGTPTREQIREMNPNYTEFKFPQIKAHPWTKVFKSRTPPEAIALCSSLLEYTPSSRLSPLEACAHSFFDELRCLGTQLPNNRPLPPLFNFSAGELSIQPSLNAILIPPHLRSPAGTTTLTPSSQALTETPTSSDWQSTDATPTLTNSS
Sequence of p38 MAPKα (MAPK14) (Q16539 whole entry, canonical isoform): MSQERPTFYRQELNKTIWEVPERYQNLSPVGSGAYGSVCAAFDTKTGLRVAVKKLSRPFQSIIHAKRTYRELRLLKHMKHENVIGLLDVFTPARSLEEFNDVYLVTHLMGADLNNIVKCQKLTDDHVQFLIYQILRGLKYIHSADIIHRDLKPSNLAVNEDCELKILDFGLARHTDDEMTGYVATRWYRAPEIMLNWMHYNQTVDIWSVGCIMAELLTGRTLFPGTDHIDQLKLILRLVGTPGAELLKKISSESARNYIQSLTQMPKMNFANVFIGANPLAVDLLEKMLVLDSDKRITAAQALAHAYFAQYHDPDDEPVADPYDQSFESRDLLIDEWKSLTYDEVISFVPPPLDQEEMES

By IC50 is commonly meant the concentration at which inhibition is half-maximal. Regarding `COCCOCCOCCNC(=O)c1cc(Nc2nccc(Oc3ccc(NC(=O)Nc4cc(C(C)(C)C)cc(NS(C)(=O)=O)c4OC)c4ccccc34)n2)cc(OC)c1` [Example 7], the IC50 on p38 MAPKα (MAPK14) stood at 39 nM; at c-Src, 9 nM; against Syk, 554 nM; on GSK 3α it was 516 nM. The “% β-catenin induction” value in test [1] (test compound 1 μg/mL) is 13%; in test [1] (test compound 5 μg/mL) it was 29%; in test [1] (test compound 10 μg/mL), 29%.
As for `COCCOCCOCCOc1cc(Nc2nccc(Oc3ccc(NC(=O)Nc4cc(C(C)(C)C)cc(NS(C)(=O)=O)c4OC)c(Cl)c3Cl)n2)cc(OC)c1` [Example 10, N-(5-(tert-Butyl)-3-(3-(2,3-dichloro-4-((2-((3-methoxy-5-(2-(2-(2-methoxyethoxy)ethoxy)-ethoxy)phenyl)amino)pyrimidin-4-yl)oxy)phenyl)ureido)-2-methoxyphenyl)-methanesulfonamide], the IC50 at p38 MAPKα (MAPK14) was 551 nM; at c-Src, 18 nM; at Syk it was 63 nM; on GSK 3α, 1310 nM. Besides, the “% β-catenin induction” value in test [1] (test compound 1 μg/mL) is 12%; in test [1] (test compound 5 μg/mL) it was 42%; in test [1] (test compound 10 μg/mL) it was 39%.
As to `COCCOCCOCCOc1cc(Nc2cc(Oc3ccc(NC(=O)Nc4cc(C(C)(C)C)cc(NS(C)(=O)=O)c4OC)c4ccccc34)ccn2)cc(OC)c1` [Example 11, N-(5-(tert-Butyl)-2-methoxy-3-(3-(4-((2-((3-methoxy-5-(2-(2-(2-methoxyethoxy)ethoxy)-ethoxy)phenyl)amino)pyridin-4-yl)oxy)naphthalen-1-yl)ureido)phenyl)-methanesulfonamide], the 50% inhibitory concentration (IC50) against p38 MAPKα (MAPK14) worked out at 124 nM; against c-Src it was 21 nM; on Syk it was 193 nM; at GSK 3α, 12200 nM. The “% β-catenin induction” value in test [1] (test compound 1 μg/mL) is −8%; in test [1] (test compound 5 μg/mL), −5%; in test [1] (test compound 10 μg/mL), −2%.
Take `CNC(=O)c1cc(C(C)(C)C)cc(NC(=O)Nc2ccc(Oc3ccnc(Nc4cc(OC)cc(OCCOCCOCCOC)c4)n3)c3ccccc23)c1OC` [Example 13, 5-(tert-Butyl)-2-methoxy-3-(3-(4-((2-((3-methoxy-5-(2-(2-(2-methoxyethoxy)ethoxy)-ethoxy)phenyl)amino)pyrimidin-4-yl)oxy)naphthalen-1-yl)ureido)-N-methylbenzamide]: the half-maximal inhibitory concentration (IC50) worked out at 28 nM against p38 MAPKα (MAPK14), 9 nM against c-Src, 35 nM on Syk and 824 nM at GSK 3α. Also, the “% β-catenin induction” value in test [1] (test compound 1 μg/mL) is recorded as 7%; in test [1] (test compound 5 μg/mL), 34%; in test [1] (test compound 10 μg/mL), 26%.
As to `COCCOCCOCCOCCOCCOCCOCCOc1cc(Nc2nccc(Oc3ccc(NC(=O)Nc4cc(C(C)(C)C)cc(NS(C)(=O)=O)c4OC)c4ccccc34)n2)cc(OC)c1` [Example 14, N-(3-(3-(4-((2-((3-(2,5,8,11,14,17,20-Heotaoxadocosan-22-yloxy)-5-methoxyphenyl)amino)-pyrimidin-4-yl)oxy)naphthalen-1-yl)ureido)-5-(tert-butyl)-2-methoxyphenyl)-methanesulfonamide], the IC50 was 49 nM on p38 MAPKα (MAPK14), 11 nM against c-Src, 106 nM on Syk and 1010 nM on GSK 3α. In addition, the figures for the “% β-catenin induction” value in test [1] (test compound 1 μg/mL), in test [1] (test compound 5 μg/mL) and in test [1] (test compound 10 μg/mL) were 0%, 16% and 14%, respectively.
`COCCOCCOCCOc1cc(Nc2nccc(Oc3ccc(NC(=O)Nc4cc(C(C)(C)C)cc(NS(C)(=O)=O)c4OC)c4ccccc34)n2)cc(OC(F)F)c1` [Example 17, N-(5-(tert-Butyl)-3-(3-(4-((2-((3-(difluoromethoxy)-5-(2-(2-(2-methoxyethoxy)ethoxy)-ethoxy)phenyl)amino)pyrimidin-4-yl)oxy)naphthalen-1-yl)ureido)-2-methoxyphenyl)-methanesulfonamide]: the IC50 was 179 nM against p38 MAPKα (MAPK14), 40 nM against c-Src, 149 nM against Syk and 5460 nM on GSK 3α. Moreover, the entries for the “% β-catenin induction” value in test [1] (test compound 1 μg/mL), in test [1] (test compound 5 μg/mL) and in test [1] (test compound 10 μg/mL) were 5%, 23% and 23%, respectively.
Take `COc1cc(Nc2nccc(Oc3ccc(NC(=O)Nc4cc(C(C)(C)C)cc(NS(C)(=O)=O)c4OC)c4ccccc34)n2)cc(OCCOCCOCCN2CCOCC2)c1` [Example 18, N-(5-(tert-Butyl)-2-methoxy-3-(3-(4-((2-((3-methoxy-5-(2-(2-(2-mormholinoethoxy)ethoxy)-ethoxy)phenyl)amino)pyrimidin-4-yl)oxy)naphthalen-1-yl)ureido)phenyl)methanesulfonamide]: the half-inhibitory concentration (IC50) against p38 MAPKα (MAPK14) amounted to 52 nM; at c-Src it was 10 nM; at Syk, 76 nM; at GSK 3α it was 3120 nM. Also, the “% β-catenin induction” value in test [1] (test compound 1 μg/mL) was determined as 1%; in test [1] (test compound 5 μg/mL) it was 9%; in test [1] (test compound 10 μg/mL), 17%.
Turning to `COCCOCCOCCOc1cc(Nc2nccc(Oc3ccc(NC(=O)Nc4cc(C(C)(C)C)cc(C(N)=O)c4OC)c4ccccc34)n2)cc(OC)c1` [Example 20, 5-(tert-Butyl)-2-methoxy-3-(3-(4-((2-((3-methoxy-5-(2-(2-(2-methoxyethoxy)ethoxy)-ethoxy)phenyl)amino)pyrimidin-4-yl)oxy)naphthalen-1-yl)ureido)benzamide], the IC50 is 33 nM at p38 MAPKα (MAPK14), 6 nM at c-Src, 29 nM on Syk and 748 nM at GSK 3α. The “% β-catenin induction” value was 4% in test [1] (test compound 1 μg/mL), 31% in test [1] (test compound 5 μg/mL) and 29% in test [1] (test compound 10 μg/mL).
Regarding `COCCOCCOCCOc1cc(Nc2nccc(Oc3ccc(NC(=O)Nc4cc(NS(C)(=O)=O)cc(C(C)(C)C)c4)c4ccccc34)n2)cc(OC)c1` [Example 24, N-(3-(tert-Butyl)-5-(3-(4-((2-((3-methoxy-5-(2-(2-(2-methoxyethoxy)ethoxy)ethoxy)-phenyl)amino)pyrimidin-4-yl)oxy)naphthalen-1-yl)ureido)phenyl)methanesulfonamide], the IC50 was determined as 30 nM against p38 MAPKα (MAPK14), 14 nM against c-Src, 549 nM against Syk and 680 nM on GSK 3α. The “% β-catenin induction” value is on record as −3% in test [1] (test compound 1 μg/mL), 27% in test [1] (test compound 5 μg/mL) and 25% in test [1] (test compound 10 μg/mL).
Regarding `COCCOCCOc1cc(Nc2nccc(Oc3ccc(NC(=O)Nc4cc(C(C)(C)C)cc(NS(C)(=O)=O)c4OC)c4ccccc34)n2)cc(OC)c1` [Example 36, N-(5-(tert-Butyl)-2-methoxy-3-(3-(4-((2-((3-methoxy-5-(2-(2-methoxyethoxy)ethoxy)-phenyl)amino)pyrimidin-4-yl)oxy)naphthalen-1-yl)ureido)phenyl)methanesulfonamide], the IC50 against p38 MAPKα (MAPK14) amounted to 69 nM; against c-Src, 16 nM; on Syk it was 67 nM; on GSK 3α it was 2090 nM. The “% β-catenin induction” value is −4% in test [1] (test compound 1 μg/mL), 28% in test [1] (test compound 5 μg/mL) and 18% in test [1] (test compound 10 μg/mL).
